Laboratory results as given in patent US8802597B2, “Herbicidal pyrimidines” (E I du Pont de Nemours and Company, priority 2003, dated 2014).
Like-named read-outs stand apart in the source and are kept apart here.

Assays:
Type in all cases: in vivo
[1] = tested on: chickweed (Stellaria media); assay: Test C postemergence; details: Stellaria media, post-emergence
Text: Seeds or nutlets of plant species selected from bermudagrass (Cynodon dactylon), Surinam grass (Brachiaria decumbens), cocklebur (Xanthium strumarium), corn (Zea mays), crabgrass (Digitaria sanguinalis), woolly cupgrass (Eriochloa villosa), giant foxtail (Setaria faberii), goosegrass (Eleusine indica), johnsongrass (Sorghum halepense), kochia (Kochia scoparia), lambsquarters (Chenopodium album), morningglory (Ipomoea coccinea), eastern black nightshade (Solanum ptycanthum), yellow nutsedge (Cyperus esculentus), pigweed (Amaranthus retroflexus), common ragweed (Ambrosia elatior), soybean (Glycine max), common (oilseed) sunflower (Helianthus annuus), and velvetleaf (Abutilon theophrasti) were planted and treated preemergence with test chemicals formulated in a non-phytotoxic solvent mixture which included a surfactant.
At the same time, plants selected from these crop and weed species and also winter barley (Hordeum vulgare), blackgrass (Alopecurus myosuroides), canarygrass (Phalaris minor), chickweed (Stellaria media), downy brome (Bromus tectorum), green foxtail (Setaria viridis), Italian ryegrass (Lolium multiflorum), wheat (Triticum aestivum), wild oat (Avena fatua) and windgrass (Apera spica-venti) were treated with postemergence applications of some of the test chemicals formulated in the same manner. Plants ranged in height from 2 to 18 cm (1- to 4-leaf stage) for postemergence treatments. Plant species in the flooded paddy test consisted of rice (Oryza sativa), umbrella sedge (Cyperus difformis), duck salad (Heteranthera limosa) and barnyardgrass (Echinochloa crus-galli) grown to the 2-leaf stage for testing. Treated plants and controls were maintained in a greenhouse for 12 to 14 days, after which time all species were compared to controls and visually evaluated. Plant response ratings, summarized in Table C, are based on a scale of 0 to 100 where 0 is no effect and 100 is complete control. A dash (-) response means no test result.

[2] = tested on: common ragweed (Ambrosia elatior); assay: Test C pre/postemergence; details: Ambrosia artemisiifolia; for pest or weed control at 16 g/ha: 16 g ai/ha; for pest or weed control at 31 g/ha: 31 g ai/ha; for pest or weed control at 62 g/ha: 62 g ai/ha; for pest or weed control at 125 g/ha: 125 g ai/ha
Method in brief: (§1)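 Percent control is a visual rating (0 none, 100 complete) taken against untreated plants after 12 to 14 days of greenhouse growth. Applications were made preemergence to seeded pots and postemergence to plants at the 1- to 4-leaf stage, in a non-phytotoxic surfactant-containing solvent.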

[3] = tested on: yellow nutsedge (Cyperus esculentus); assay: Test C pre/postemergence; details: Cyperus; for pest or weed control at 16 g/ha: 16 g ai/ha; for pest or weed control at 31 g/ha: 31 g ai/ha; for pest or weed control at 62 g/ha: 62 g ai/ha; for pest or weed control at 125 g/ha: 125 g ai/ha
Method in brief: as §1

[4] = tested on: pigweed (Amaranthus retroflexus); assay: Test C pre/postemergence; details: Amaranthus retroflexus; for pest or weed control at 16 g/ha: 16 g ai/ha; for pest or weed control at 31 g/ha: 31 g ai/ha; for pest or weed control at 62 g/ha: 62 g ai/ha; for pest or weed control at 125 g/ha: 125 g ai/ha
Method in brief: as §1

[5] = tested on: bermudagrass (Cynodon dactylon); assay: Test C pre/postemergence; details: Cynodon dactylon; for pest or weed control at 16 g/ha: 16 g ai/ha; for pest or weed control at 31 g/ha: 31 g ai/ha; for pest or weed control at 62 g/ha: 62 g ai/ha; for pest or weed control at 125 g/ha: 125 g ai/ha
Method in brief: as §1

[6] = tested on: velvetleaf (Abutilon theophrasti); assay: Test C pre/postemergence; details: Abutilon theophrasti; for pest or weed control at 16 g/ha: 16 g ai/ha; for pest or weed control at 31 g/ha: 31 g ai/ha; for pest or weed control at 62 g/ha: 62 g ai/ha; for pest or weed control at 125 g/ha: 125 g ai/ha
Method in brief: as §1

[7] = tested on: goosegrass (Eleusine indica); assay: Test C pre/postemergence; details: Eleusine indica; for pest or weed control at 16 g/ha: 16 g ai/ha; for pest or weed control at 31 g/ha: 31 g ai/ha; for pest or weed control at 62 g/ha: 62 g ai/ha; for pest or weed control at 125 g/ha: 125 g ai/ha
Method in brief: as §1

[8] = tested on: woolly cupgrass (Eriochloa villosa); assay: Test C pre/postemergence; details: Eriochloa villosa; for pest or weed control at 16 g/ha: 16 g ai/ha; for pest or weed control at 31 g/ha: 31 g ai/ha; for pest or weed control at 62 g/ha: 62 g ai/ha; for pest or weed control at 125 g/ha: 125 g ai/ha
Method in brief: as §1

[9] = post-emergence, Postemergence, read-out: Plant response rating (scale of 0 to 100), Ragweed
[10] = post-emergence, Postemergence, scale 0 to 100 (0 no effect, 100 complete control), read-out: Ragweed plant response rating
[11] = pre-emergence, Preemergence, scale 0 to 100, 0 no effect, 100 complete control, read-out: Plant response rating, Ragweed
[12] = post-emergence, Postemergence, read-out: Plant response rating (scale of 0 to 100), Nutsedge, Yellow
[13] = post-emergence, Postemergence, scale 0 to 100 (0 no effect, 100 complete control), read-out: Nutsedge, Yellow plant response rating
[14] = pre-emergence, Preemergence, scale 0 to 100, 0 no effect, 100 complete control, read-out: Plant response rating, Nutsedge, Yellow
[15] = post-emergence, Postemergence, read-out: Plant response rating (scale of 0 to 100), Pigweed
[16] = post-emergence, Postemergence, scale 0 to 100 (0 no effect, 100 complete control), read-out: Pigweed plant response rating
[17] = pre-emergence, Preemergence, scale 0 to 100, 0 no effect, 100 complete control, read-out: Plant response rating, Pigweed
[18] = post-emergence, Postemergence, read-out: Plant response rating (scale of 0 to 100), Bermudagrass
[19] = post-emergence, Postemergence, scale 0 to 100 (0 no effect, 100 complete control), read-out: Bermudagrass plant response rating
[20] = pre-emergence, Preemergence, scale 0 to 100, 0 no effect, 100 complete control, read-out: Plant response rating, Bermudagrass
[21] = post-emergence, Postemergence, read-out: Plant response rating (scale of 0 to 100), Velvetleaf
[22] = post-emergence, Postemergence, scale 0 to 100 (0 no effect, 100 complete control), read-out: Velvetleaf plant response rating
[23] = pre-emergence, Preemergence, scale 0 to 100, 0 no effect, 100 complete control, read-out: Plant response rating, Velvetleaf
[24] = post-emergence, Postemergence, read-out: Plant response rating (scale of 0 to 100), Goosegrass
[25] = post-emergence, Postemergence, scale 0 to 100 (0 no effect, 100 complete control), read-out: Goosegrass plant response rating
[26] = pre-emergence, Preemergence, scale 0 to 100, 0 no effect, 100 complete control, read-out: Plant response rating, Goosegrass
[27] = post-emergence, Postemergence, read-out: Plant response rating (scale of 0 to 100), Cupgrass, Woolly
[28] = post-emergence, Postemergence, scale 0 to 100 (0 no effect, 100 complete control), read-out: Cupgrass, Woolly plant response rating
[29] = pre-emergence, Preemergence, scale 0 to 100, 0 no effect, 100 complete control, read-out: Plant response rating, Cupgrass, Woolly

SMILES: COC(=O)c1nc(C2CC2)nc(N)c1F [Compound 25]
- pest or weed control at 16 g/ha ([1]; 16 g ai/ha, read-out: Plant response rating (scale of 0 to 100), Chickweed): 0%
- pest or weed control at 62 g/ha ([1]; 62 g ai/ha, scale 0 to 100 (0 no effect, 100 complete control), read-out: Chickweed plant response rating): 40%
- pest or weed control at 125 g/ha ([1]; 125 g ai/ha, scale 0 to 100 (0 no effect, 100 complete control), read-out: Chickweed plant response rating): 85%
- pest or weed control at 16 g/ha [2, 9]: 40%
- pest or weed control at 31 g/ha [2, 9]: 50%
- pest or weed control at 62 g/ha [2, 10]: 65%
- pest or weed control at 125 g/ha [2, 10]: 70%
- pest or weed control at 16 g/ha [2, 11]: 0%
- pest or weed control at 31 g/ha [2, 11]: 70%
- pest or weed control at 62 g/ha [2, 11]: 70%
- pest or weed control at 125 g/ha ([2]; pre-emergence, Preemergence, scale 0 to 100, read-out: Plant response rating, Ragweed): 85%
- pest or weed control at 16 g/ha [3, 12]: 0%
- pest or weed control at 31 g/ha [3, 12]: 0%
- pest or weed control at 62 g/ha [3, 13]: 0%
- pest or weed control at 125 g/ha [3, 13]: 0%
- pest or weed control at 16 g/ha [3, 14]: 0%
- pest or weed control at 31 g/ha [3, 14]: 0%
- pest or weed control at 62 g/ha [3, 14]: 0%
- pest or weed control at 125 g/ha ([3]; pre-emergence, Preemergence, scale 0 to 100, read-out: Plant response rating, Nutsedge, Yellow): 0%
- pest or weed control at 16 g/ha [4, 15]: 50%
- pest or weed control at 31 g/ha [4, 15]: 50%
- pest or weed control at 62 g/ha [4, 16]: 80%
- pest or weed control at 125 g/ha [4, 16]: 100%
- pest or weed control at 16 g/ha [4, 17]: 0%
- pest or weed control at 31 g/ha [4, 17]: 30%
- pest or weed control at 62 g/ha [4, 17]: 35%
- pest or weed control at 125 g/ha ([4]; pre-emergence, Preemergence, scale 0 to 100, read-out: Plant response rating, Pigweed): 85%
- pest or weed control at 16 g/ha [5, 18]: 0%
- pest or weed control at 31 g/ha [5, 18]: 0%
- pest or weed control at 62 g/ha [5, 19]: 0%
- pest or weed control at 125 g/ha [5, 19]: 0%
- pest or weed control at 16 g/ha [5, 20]: 0%
- pest or weed control at 31 g/ha [5, 20]: 0%
- pest or weed control at 62 g/ha [5, 20]: 0%
- pest or weed control at 125 g/ha ([5]; pre-emergence, Preemergence, scale 0 to 100, read-out: Plant response rating, Bermudagrass): 10%
- pest or weed control at 16 g/ha [6, 21]: 5%
- pest or weed control at 31 g/ha [6, 21]: 20%
- pest or weed control at 62 g/ha [6, 22]: 45%
- pest or weed control at 125 g/ha [6, 22]: 45%
- pest or weed control at 16 g/ha [6, 23]: 0%
- pest or weed control at 31 g/ha [6, 23]: 0%
- pest or weed control at 62 g/ha [6, 23]: 0%
- pest or weed control at 125 g/ha ([6]; pre-emergence, Preemergence, scale 0 to 100, read-out: Plant response rating, Velvetleaf): 40%
- pest or weed control at 16 g/ha [7, 24]: 0%
- pest or weed control at 31 g/ha [7, 24]: 0%
- pest or weed control at 62 g/ha [7, 25]: 0%
- pest or weed control at 125 g/ha [7, 25]: 0%
- pest or weed control at 16 g/ha [7, 26]: 0%
- pest or weed control at 31 g/ha [7, 26]: 0%
- pest or weed control at 62 g/ha [7, 26]: 0%
- pest or weed control at 125 g/ha ([7]; pre-emergence, Preemergence, scale 0 to 100, read-out: Plant response rating, Goosegrass): 0%
- pest or weed control at 16 g/ha [8, 27]: 0%
- pest or weed control at 31 g/ha [8, 27]: 0%
- pest or weed control at 62 g/ha [8, 28]: 0%
- pest or weed control at 125 g/ha [8, 28]: 30%
- pest or weed control at 16 g/ha [8, 29]: 0%
- pest or weed control at 31 g/ha [8, 29]: 0%
- pest or weed control at 62 g/ha [8, 29]: 0%
- pest or weed control at 125 g/ha ([8]; pre-emergence, Preemergence, scale 0 to 100, read-out: Plant response rating, Cupgrass, Woolly): 50%
